Patent US9359367B2, “Tetrahydroquinazolinone derivatives as PARP inhibitors” (Lupin Limited, priority 2012, dated 2016)

Biological target: T1, PARP1 (Homo sapiens, UniProt P09874)
T1 construct: purchased BPS Bioscience
Test: PARP1 Biochemical Assay (BPS Bioscience kit, chemiluminescence)
Details: histone-coated plate, biotinilated NAD+, 25° C. for 60 min, luminescence, read-out: PARP 1 inhibition IC50
Method: The assay was performed using BPS Bioscience kit. The 96-well strip plate was coated with 50 μl of histone mixture and incubated at 4° C. overnight. Next day the wells were blocked by adding 100 μl of blocking buffer. The plate was washed and 25 μl of appropriate concentration of PARP1 (25-75 ng/well) was added in all the Test and Positive control wells. In Negative control wells enzyme was replaced with 25 μl of water. To it 5 μl each of 10×PARP assay buffer and activated DNA was added in all the wells (Test, Positive and Negative control wells). 10× concentration of test compounds were prepared and 5 μl test compounds were added respective wells. Reaction volume was made up to 45 μl by adding water to all the wells. Finally, 5 μl of 10×PARP assay mixture containing biotinilated NAD^+ was added in each well and the plate was incubated at ambient temperature (25° C.) for 60 min. After washing the plate 50 μl of Streptavidin-HRP was added in each well and incubated the plate at RT for 30 min. The plate was washed and the luminescence was read in PHERAStar plate reader after adding 100 μl of chemiluminescent substrate.
PARP inhibition was calculated using the following formula: % PARP inhibition=100−[(RLU test compound treated sample−RLU negative control)/(RLU Positive control−RLU negative control)×100]
IC50 values were calculated by plotting % inhibition against the respective concentrations of test compounds using GraphPad Prism 5.

T1 sequence (P09874 whole entry): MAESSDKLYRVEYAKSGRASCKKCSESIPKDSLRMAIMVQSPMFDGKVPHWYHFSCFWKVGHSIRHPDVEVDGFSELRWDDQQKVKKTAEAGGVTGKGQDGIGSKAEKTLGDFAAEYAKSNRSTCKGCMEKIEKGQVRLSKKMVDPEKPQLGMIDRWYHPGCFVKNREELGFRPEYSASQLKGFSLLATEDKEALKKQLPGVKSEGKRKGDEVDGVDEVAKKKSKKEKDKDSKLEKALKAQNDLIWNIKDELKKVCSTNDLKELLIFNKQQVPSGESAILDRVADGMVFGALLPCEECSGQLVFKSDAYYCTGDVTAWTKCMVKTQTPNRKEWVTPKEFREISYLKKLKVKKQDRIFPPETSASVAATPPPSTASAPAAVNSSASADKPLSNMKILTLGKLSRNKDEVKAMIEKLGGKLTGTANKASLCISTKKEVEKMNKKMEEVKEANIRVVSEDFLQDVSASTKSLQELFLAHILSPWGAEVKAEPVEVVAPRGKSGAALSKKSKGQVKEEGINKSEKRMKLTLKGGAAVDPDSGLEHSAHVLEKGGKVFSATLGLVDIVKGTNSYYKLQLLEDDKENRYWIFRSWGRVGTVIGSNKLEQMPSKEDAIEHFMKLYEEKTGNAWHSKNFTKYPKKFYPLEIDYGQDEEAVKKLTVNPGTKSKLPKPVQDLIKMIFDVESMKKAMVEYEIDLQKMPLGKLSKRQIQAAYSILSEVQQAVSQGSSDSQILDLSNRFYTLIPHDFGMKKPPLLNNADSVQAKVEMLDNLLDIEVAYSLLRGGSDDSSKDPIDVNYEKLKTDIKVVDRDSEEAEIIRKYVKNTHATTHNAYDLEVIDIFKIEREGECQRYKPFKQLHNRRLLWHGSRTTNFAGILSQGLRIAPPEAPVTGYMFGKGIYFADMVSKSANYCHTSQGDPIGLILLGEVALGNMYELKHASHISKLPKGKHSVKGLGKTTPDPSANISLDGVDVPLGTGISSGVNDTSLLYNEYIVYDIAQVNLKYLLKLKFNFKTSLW

Compound	IC50
Cc1cnc(N2CCN([C@H]3C=C(c4nc5c(c(=O)[nH]4)CC4(CC5)CC4)CC3)CC2)s1 [Compound 113, (R)-2′-(3-(4-(5-methylthiazol-2-yl)piperazin-1-yl)cyclopent-1-en-1-yl)-7′,8′-dihydro-3′H-spiro[cyclopropane-1,6′-quinazolin]-4′(5′H)-one]	1 to 500 nM
CC(C)(CCc1nc2c(c(=O)[nH]1)CC1(CC2)CC1)N1CCN(c2ccc(F)cc2)CC1 [Compound 30, 2′-(3-(4-(4-fluorophenyl)piperazin-1-yl)-3-methylbutyl)-7′,8′-dihydro-3′H-spiro[cyclopropane-1,6′-quinazolin]-4′(5′H)-one]	1 to 500 nM
COc1cc(F)ccc1N1CCN([C@H]2C=C(c3nc4c(c(=O)[nH]3)CC3(CC4)CC3)CC2)CC1 [Compound 133, (R)-2′-(3-(4-(4-fluoro-2-methoxyphenyl)piperazin-1-yl)cyclopent-1-en-1-yl)-7′,8′-dihydro-3′H-spiro[cyclopropane-1,6′-quinazolin]-4′(5′H)-one]	1 to 500 nM
O=c1[nH]c(C2=C[C@H](N3CCN(c4cc(F)cc(Cl)c4)CC3)CC2)nc2c1CC1(CC2)CC1 [Compound 115, (R)-2′-(3-(4-(3-chloro-5-fluorophenyl)piperazin-1-yl)cyclopent-1-en-1-yl)-7′,8′-dihydro-3′H-spiro[cyclopropane-1,6′-quinazolin]-4′(5′H)-one]	501 to 5000 nM
O=c1[nH]c(CCCN2CCN(c3cccc(C(F)(F)F)c3)CC2)nc2c1CC1(CC2)CC1 [Compound 22, 2′-(3-(4-(3-(trifluoromethyl)phenyl)piperazin-1-yl)propyl)-7′,8′-dihydro-3′H-spiro[cyclopropane-1,6′-quinazolin]-4′(5′H)-one]	5000 to 500000 nM
Cc1ccc(C2CCN([C@H]3C=C(c4nc5c(c(=O)[nH]4)CC4(CC5)CC4)CC3)CC2)cc1 [Compound 77, (R)-2′-(3-(4-(p-tolyl)piperidin-1-yl)cyclopent-1-en-1-yl)-7′,8′-dihydro-3′H-spiro[cyclopropane-1,6′-quinazolin]-4′(5′H)-one]	1 to 500 nM
O=c1[nH]c(CCCN2CC3CC2CN3c2ccc(F)cc2)nc2c1CC1(CC2)CC1 (stereo not drawn) [Compound 11, 2′-(3-(5-(4-fluorophenyl)-2,5-diazabicyclo[2.2.1]heptan-2-yl)propyl)-7′,8′-dihydro-3′H-spiro[cyclopropane-1,6′-quinazolin]-4′(5′H)-one]	501 to 5000 nM
CC1(C)CC(c2nc3c(c(=O)[nH]2)CC2(CC3)CC2)=C[C@H]1N1CCN(c2ccc(F)cc2)CC1 [Compound 70, (R)-2′-(3-(4-(4-fluorophenyl)piperazin-1-yl)-4,4-dimethylcyclopent-1-en-1-yl)-7′,8′-dihydro-3′H-spiro[cyclopropane-1,6′-quinazolin]-4′(5′H)-one]	5000 to 500000 nM
O=c1[nH]c(CCCN2C3CCC2CN(c2ccc(F)cc2)C3)nc2c1CC1(CC2)CC1 [Compound 7, 2′-(3-(3-(4-fluorophenyl)-3,8-diazabicyclo[3.2.1]octan-8-yl)propyl)-7′,8′-dihydro-3′H-spiro[cyclopropane-1,6′-quinazolin]-4′(5′H)-one]	1 to 500 nM
O=c1[nH]c(C2=C[C@H](N3CC=C(c4ccc(F)cc4)CC3)CC2)nc2c1CC1(CC2)CC1 [Compound 52, (R)-2′-(3-(4-(4-fluorophenyl)-5,6-dihydropyridin-1 (2H)-yl)cyclopent-1-en-1-yl)-7′,8′-dihydro-3′H-spiro[cyclopropane-1,6′-quinazolin]-4′(5′H)-one]	1 to 500 nM
O=C1CN([C@H]2C=C(c3nc4c(c(=O)[nH]3)CC3(CC4)CC3)CC2)CCN1c1ccc(F)cc1 [Compound 45, (R)2′-(3-(4-(4-fluorophenyl)-3-oxopiperazin-1-yl)cyclopent-1-en-1-yl)-7′,8′-dihydro-3′H-spiro[cyclopropane-1,6′-quinazolin]-4′(5′H)-one]	5000 to 500000 nM
O=c1[nH]c(CCCN2CCN(c3ccc(Cl)cc3)CC2)nc2c1CCCC21CC1 [Compound 2, 2′-(3-(4-(4-chlorophenyl)piperazin-1-yl)propyl)-6′,7′-dihydro-3′H-spiro[cyclopropane-1,8′-quinazolin]-4′(5′H)-one]	1 to 500 nM
O=c1[nH]c(C2=C[C@H](N3CCN(c4cccc(F)c4Cl)CC3)CC2)nc2c1CC1(CC2)CC1 [Compound 93, (R)-2′-(3-(4-(2-chloro-3-fluorophenyl)piperazin-1-yl)cyclopent-1-en-1-yl)-7′,8′-dihydro-3′H-spiro[cyclopropane-1,6′-quinazolin]-4′(5′H)-one]	1 to 500 nM
O=c1[nH]c(C2=C[C@H](N3CCN(c4ccc(-c5ccccc5)nc4)CC3)CC2)nc2c1CC1(CC2)CC1 [Compound 157, (R)-2′-(3-(4-(6-phenylpyridin-3-yl)piperazin-1-yl)cyclopent-1-en-1-yl)-7′,8′-dihydro-3′H-spiro[cyclopropane-1,6′-quinazolin]-4′(5′H)-one]	501 to 5000 nM
CC1(C)CC(c2nc3c(c(=O)[nH]2)CC2(CC3)CC2)=C[C@@H]1N1CCN(c2ccc(F)cc2)CC1 [Compound 71, (S)-2′-(3-(4-(4-fluorophenyl)piperazin-1-yl)-4,4-dimethylcyclopent-1-en-1-yl)-7′,8′-dihydro-3′H-spiro[cyclopropane-1,6′-quinazolin]-4′(5′H)-one]	5000 to 500000 nM
Cc1c(F)cccc1N1CCN([C@H]2C=C(c3nc4c(c(=O)[nH]3)CC3(CC4)CC3)CC2)CC1 [Compound 108, (R)-2′-(3-(4-(3-fluoro-2-methylphenyl)piperazin-1-yl)cyclopent-1-en-1-yl)-7′,8′-dihydro-3′H-spiro[cyclopropane-1,6′-quinazolin]-4′(5′H)-one]	1 to 500 nM
O=c1[nH]c(C2=C[C@H](N3CCN(c4ccc(-c5ccccc5)cc4)CC3)CC2)nc2c1CC1(CC2)CC1 [Compound 158, (R)-2′-(3-(4-([1,1′-biphenyl]-4-yl)piperazin-1-yl)cyclopent-1-en-1-yl)-7′,8′-dihydro-3′H-spiro[cyclopropane-1,6′-quinazolin]-4′(5′H)-one]	501 to 5000 nM
O=c1[nH]c([C@H]2CC[C@@H](N3CCN(c4ccc(F)cc4)CC3)C2)nc2c1CC1(CC2)CC1 [Compound 151, 2′-((1S,3R)-3-(4-(4-fluorophenyl)piperazin-1-yl)cyclopentyl)-7′,8′-dihydro-3′H-spiro[cyclopropane-1,6′-quinazolin]-4′(5′H)-one]	1 to 500 nM
O=c1[nH]c(CCCN2CCN(c3ccccc3)CC2)nc2c1CC1CC1C2 (stereo not drawn) [Compound 25, 2-(3-(4-phenylpiperazin-1-yl)propyl)-5a,6,6a,7-tetrahydro-3H-cyclopropa[g]quinazolin-4(5H)-one]	501 to 5000 nM
N#Cc1ccc(N2CCN([C@H]3C=C(c4nc5c(c(=O)[nH]4)CC4(CC5)CC4)CC3)CC2)cc1F [Compound 127, (R)-2-fluoro-4-(4-(3-(4′-oxo-4′,5′,7′,8′-tetrahydro-3′H-spiro[cyclopropane-1,6′-quinazolin]-2′-yl)cyclopent-2-en-1-yl)piperazin-1-yl)benzonitrile]	1 to 500 nM
Cc1cccc(N2CCN([C@H]3C=C(c4nc5c(c(=O)[nH]4)CC4(CC5)CC4)CC3)CC2)c1C [Compound 140, (R)-2′-(3-(4-(2,3-dimethylphenyl)piperazin-1-yl)cyclopent-1-en-1-yl)-7′,8′-dihydro-3′H-spiro[cyclopropane-1,6′-quinazolin]-4′(5′H)-one]	501 to 5000 nM
Cc1ccc(N2CCN([C@H]3C=C(c4nc5c(c(=O)[nH]4)CC4(CC5)CC4)CC3)CC2)c(F)c1 [Compound 88, (R)-2′-(3-(4-(2-fluoro-4-methylphenyl)piperazin-1-yl)cyclopent-1-en-1-yl)-7′,8′-dihydro-3′H-spiro[cyclopropane-1,6′-quinazolin]-4′(5′H)-one]	1 to 500 nM
O=c1[nH]c(C2=C[C@H](N3CCN(c4nccs4)CC3)CC2)nc2c1CC1(CC2)CC1 [Compound 101, (R)-2′-(3-(4-(thiazol-2-yl)piperazin-1-yl)cyclopent-1-en-1-yl)-7′,8′-dihydro-3′H-spiro[cyclopropane-1,6′-quinazolin]-4′(5′H)-one]	1 to 500 nM
O=c1[nH]c(CCCN2CCN(c3ccc(Cl)cc3)CC2)nc2c1C1CCC2C1 (stereo not drawn) [Compound 36, 2-(3-(4-(4-chlorophenyl)piperazin-1-yl)propyl)-5,6,7,8-tetrahydro-5,8-methanoquinazolin-4(3H)-one]	5000 to 500000 nM
O=c1[nH]c(CCCN2CCN(c3ccc(Cl)c(Cl)c3)CC2)nc2c1CC1(CC2)CC1 [Compound 10, 2′-(3-(4-(3,4-dichlorophenyl)piperazin-1-yl)propyl)-7′,8′-dihydro-3′H-spiro[cyclopropane-1,6′-quinazolin]-4′(5′H)-one]	501 to 5000 nM
Cc1cc(N2CCN([C@H]3C=C(c4nc5c(c(=O)[nH]4)CC4(CC5)CC4)CC3)CC2)ccn1 [Compound 147, (R)-2′-(3-(4-(2-methylpyridin-4-yl)piperazin-1-yl)cyclopent-1-en-1-yl)-7′,8′-dihydro-3′H-spiro[cyclopropane-1,6′-quinazolin]-4′(5′H)-one]	1 to 500 nM
O=c1[nH]c(C2=C[C@H](N3CCN(c4ccc(-c5ccsc5)cc4)CC3)CC2)nc2c1CC1(CC2)CC1 [Compound 148, (R)-2′-(3-(4-(4-(thiophen-3-yl)phenyl)piperazin-1-yl)cyclopent-1-en-1-yl)-7′,8′-dihydro-3′H-spiro[cyclopropane-1,6′-quinazolin]-4′(5′H)-one]	501 to 5000 nM
